From US20250230193A1, “CYCLIC COMPOUND HAVING SELECTIVE KRAS INHIBITORY EFFECT ON HRAS AND NRAS” (CHUGAI SEIYAKU KABUSHIKI KAISHA, priority 2022, published 2025)
*1 amine or outer side, *2 acyl side, *3 side chain or, on linkers, in order; H or OH if unused. Where a SMILES comes first, the peptide text is derived from it. Bridges are numbered along the chain shown (N, C = ends). [ ]: non-standard residue; d: D form. The star is where a group is joined. hPhe(3,5-F2-4-CF3) = N[C@@H](CCc1cc(F)c(C(F)(F)F)c(F)c1)C(=O)O; NPrPhe(4-CF3) = CCCN[C@@H](Cc1ccc(C(F)(F)F)cc1)C(=O)O; NMeAbu(4,4,4-F3) = CN[C@@H](CC(F)(F)F)C(=O)O; NMeGly(cPent) = CN[C@H](C(=O)O)C1CCCC1; Ac4c(3,3-F2) = NC1(C(=O)O)CC(F)(F)C1; X13 = CCC[C@](C)(N[*:1])C(=O)[*:2]; Nva(3-Et) = CCC(CC)[C@H](N)C(=O)O; αMeF = C[C@](N)(Cc1ccccc1)C(=O)O; NMeD = CN[C@@H](CC(=O)O)C(=O)O; Ac4c(3-oxa) = NC1(C(=O)O)COC1; NMeL = CN[C@@H](CC(C)C)C(=O)O; αMeL = CC(C)C[C@](C)(N)C(=O)O; αMeS = C[C@](N)(CO)C(=O)O; Morpholide = C1CN(*)CCO1; Ac5c = NC1(C(=O)O)CCCC1; Aze = O=C(O)[C@@H]1CCN1; Sar = CNCC(=O)O; Allyl = C=CC*

Experiments:
[1] = biological target: GDP-bound HRAS wild-type protein (Homo sapiens, UniProt P01112); experiment: Binding to HRAS by surface plasmon resonance (SPR), Single Cycle Kinetics; conditions: KD ratio HRAS/KRAS, SPR
[2] = biological target: GDP-bound NRAS wild-type protein (Homo sapiens, UniProt P01111); experiment: Binding to NRAS by surface plasmon resonance (SPR), Single Cycle Kinetics; conditions: KD ratio NRAS/KRAS, SPR
GDP-bound NRAS wild-type protein, sequence (P01111 whole entry): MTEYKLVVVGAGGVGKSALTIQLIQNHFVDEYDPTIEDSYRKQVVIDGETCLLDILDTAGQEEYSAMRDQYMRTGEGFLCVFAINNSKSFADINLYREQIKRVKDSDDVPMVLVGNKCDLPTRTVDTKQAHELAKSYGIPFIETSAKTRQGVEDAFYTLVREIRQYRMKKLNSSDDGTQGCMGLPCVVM

GDP-bound HRAS wild-type protein, sequence (P01112 whole entry): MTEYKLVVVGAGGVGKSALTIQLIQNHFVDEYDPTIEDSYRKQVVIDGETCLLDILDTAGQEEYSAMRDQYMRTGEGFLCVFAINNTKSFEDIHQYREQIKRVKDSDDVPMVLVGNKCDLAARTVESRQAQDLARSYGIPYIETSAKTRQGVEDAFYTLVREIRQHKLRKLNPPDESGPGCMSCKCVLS

Structure (SMILES) | HRAS/KRAS (ratio of KD value with respect to GDP-bound HRAS wild-type protein to KD value with respect to KRAS) [1] | NRAS/KRAS (ratio of KD value with respect to GDP-bound NRAS wild-type protein to KD value with respect to KRAS) [2]
CCCN1C(=O)CN(C)C(=O)[C@@H]2CCN2C(=O)[C@H]([C@@H](C)CC)NC(=O)[C@H](CC(C)C)N(C)C(=O)C[C@@H](C(=O)N2CCOCC2)N(C)C(=O)[C@H](C2CCCC2)N(C)C(=O)[C@](C)(CCC)NC(=O)[C@@H]2CCCN2C(=O)[C@H](CCc2cc(F)c(C(F)(F)F)c(F)c2)NC(=O)CN(C)C(=O)[C@@H]1Cc1ccc(C(F)(F)F)cc1 [PP0775] ([NMeL]I[Aze][Sar][NPrPhe(4-CF3)][Sar][hPhe(3,5-F2-4-CF3)]P[X13][NMeGly(cPent)][NMeD]-Morpholide; lactam N-11) | B (a compound having 3 or more and less than 10 is denoted as B) | B (a compound having 3 or more and less than 10 is denoted as B)
CCCN1C(=O)CN(C)C(=O)[C@@H]2CCN2C(=O)[C@H]([C@@H](C)CC)NC(=O)[C@H](CC(C)C)N(C)C(=O)C[C@@H](C(=O)N2CCOCC2)N(C)C(=O)[C@H](C2CCCC2)N(C)C(=O)[C@](C)(CC(C)C)NC(=O)[C@@H]2CCCN2C(=O)[C@H](CCc2cc(F)c(C(F)(F)F)c(F)c2)NC(=O)CN(C)C(=O)[C@@H]1Cc1ccc(C(F)(F)F)cc1 [PP0776] ([NMeL]I[Aze][Sar][NPrPhe(4-CF3)][Sar][hPhe(3,5-F2-4-CF3)]P[αMeL][NMeGly(cPent)][NMeD]-Morpholide; lactam N-11) | B (a compound having 3 or more and less than 10 is denoted as B) | B (a compound having 3 or more and less than 10 is denoted as B)
CCCN1C(=O)CN(C)C(=O)[C@@H]2CCN2C(=O)[C@H]([C@@H](C)CC)NC(=O)[C@H](CC(C)C)N(C)C(=O)C[C@@H](C(=O)N2CCOCC2)N(C)C(=O)[C@H](C2CCCC2)N(C)C(=O)[C@](C)(Cc2ccccc2)NC(=O)[C@@H]2CCCN2C(=O)[C@H](CCc2cc(F)c(C(F)(F)F)c(F)c2)NC(=O)CN(C)C(=O)[C@@H]1Cc1ccc(C(F)(F)F)cc1 [PP0778] ([NMeL]I[Aze][Sar][NPrPhe(4-CF3)][Sar][hPhe(3,5-F2-4-CF3)]P[αMeF][NMeGly(cPent)][NMeD]-Morpholide; lactam N-11) | B (a compound having 3 or more and less than 10 is denoted as B) | B (a compound having 3 or more and less than 10 is denoted as B)
CCCN1C(=O)CN(C)C(=O)[C@@H]2CCN2C(=O)[C@H]([C@@H](C)CC)NC(=O)[C@H](CC(C)C)N(C)C(=O)C[C@@H](C(=O)N2CCOCC2)N(C)C(=O)[C@H](C2CCCC2)N(C)C(=O)[C@](C)(COC)NC(=O)[C@@H]2CCCN2C(=O)[C@H](CCc2cc(F)c(C(F)(F)F)c(F)c2)NC(=O)CN(C)C(=O)[C@@H]1Cc1ccc(C(F)(F)F)cc1 [PP0779] ([NMeL]I[Aze][Sar][NPrPhe(4-CF3)][Sar][hPhe(3,5-F2-4-CF3)]P[αMeS](Me)[NMeGly(cPent)][NMeD]-Morpholide; lactam N-11) | B (a compound having 3 or more and less than 10 is denoted as B) | B (a compound having 3 or more and less than 10 is denoted as B)
C=CCOC[C@]1(C)NC(=O)[C@@H]2CCCN2C(=O)[C@H](CCc2cc(F)c(C(F)(F)F)c(F)c2)NC(=O)CN(C)C(=O)[C@H](Cc2ccc(C(F)(F)F)cc2)N(CCC)C(=O)CN(C)C(=O)[C@@H]2CCN2C(=O)[C@H]([C@@H](C)CC)NC(=O)[C@H](CC(C)C)N(C)C(=O)C[C@@H](C(=O)N2CCOCC2)N(C)C(=O)[C@H](C2CCCC2)N(C)C1=O [PP0780] ([NMeL]I[Aze][Sar][NPrPhe(4-CF3)][Sar][hPhe(3,5-F2-4-CF3)]P[αMeS](Allyl)[NMeGly(cPent)][NMeD]-Morpholide; lactam N-11) | B (a compound having 3 or more and less than 10 is denoted as B) | B (a compound having 3 or more and less than 10 is denoted as B)
CCCN1C(=O)CN(C)C(=O)[C@@H]2CCN2C(=O)[C@H]([C@@H](C)CC)NC(=O)[C@H](CC(C)C)N(C)C(=O)C[C@@H](C(=O)N2CCOCC2)N(C)C(=O)[C@H](C2CCCC2)N(C)C(=O)C2(COC2)NC(=O)[C@@H]2CCCN2C(=O)[C@H](CCc2cc(F)c(C(F)(F)F)c(F)c2)NC(=O)CN(C)C(=O)[C@@H]1Cc1ccc(C(F)(F)F)cc1 [PP0782] ([NMeL]I[Aze][Sar][NPrPhe(4-CF3)][Sar][hPhe(3,5-F2-4-CF3)]P[Ac4c(3-oxa)][NMeGly(cPent)][NMeD]-Morpholide; lactam N-11) | B (a compound having 3 or more and less than 10 is denoted as B) | B (a compound having 3 or more and less than 10 is denoted as B)
CCCN1C(=O)CN(C)C(=O)[C@@H]2CCN2C(=O)[C@H]([C@@H](C)CC)NC(=O)[C@H](CC(C)C)N(C)C(=O)C[C@@H](C(=O)N2CCOCC2)N(C)C(=O)[C@H](C2CCCC2)N(C)C(=O)C2(CC(F)(F)C2)NC(=O)[C@@H]2CCCN2C(=O)[C@H](CCc2cc(F)c(C(F)(F)F)c(F)c2)NC(=O)CN(C)C(=O)[C@@H]1Cc1ccc(C(F)(F)F)cc1 [PP0783] ([NMeL]I[Aze][Sar][NPrPhe(4-CF3)][Sar][hPhe(3,5-F2-4-CF3)]P[Ac4c(3,3-F2)][NMeGly(cPent)][NMeD]-Morpholide; lactam N-11) | B (a compound having 3 or more and less than 10 is denoted as B) | B (a compound having 3 or more and less than 10 is denoted as B)
CCCN1C(=O)CN(C)C(=O)[C@@H]2CCN2C(=O)[C@H]([C@@H](C)CC)NC(=O)[C@H](CC(C)C)N(C)C(=O)C[C@@H](C(=O)N2CCOCC2)N(C)C(=O)[C@H](CC(F)(F)F)N(C)C(=O)C2(CCCC2)NC(=O)[C@@H]2CCCN2C(=O)[C@H](CCc2cc(F)c(C(F)(F)F)c(F)c2)NC(=O)CN(C)C(=O)[C@@H]1Cc1ccc(C(F)(F)F)cc1 [PP0784] ([NMeL]I[Aze][Sar][NPrPhe(4-CF3)][Sar][hPhe(3,5-F2-4-CF3)]P[Ac5c][NMeAbu(4,4,4-F3)][NMeD]-Morpholide; lactam N-11) | B (a compound having 3 or more and less than 10 is denoted as B) | B (a compound having 3 or more and less than 10 is denoted as B)
CCCN1C(=O)CN(C)C(=O)[C@@H]2CCN2C(=O)[C@H](C(CC)CC)NC(=O)[C@H](CC(C)C)N(C)C(=O)C[C@@H](C(=O)N2CCOCC2)N(C)C(=O)[C@H](C2CCCC2)N(C)C(=O)C2(CCCC2)NC(=O)[C@@H]2CCCN2C(=O)[C@H](CCc2cc(F)c(C(F)(F)F)c(F)c2)NC(=O)CN(C)C(=O)[C@@H]1Cc1ccc(C(F)(F)F)cc1 [PP0785] ([NMeL][Nva(3-Et)][Aze][Sar][NPrPhe(4-CF3)][Sar][hPhe(3,5-F2-4-CF3)]P[Ac5c][NMeGly(cPent)][NMeD]-Morpholide; lactam N-11) | B (a compound having 3 or more and less than 10 is denoted as B) | B (a compound having 3 or more and less than 10 is denoted as B)
